From ChEMBL document CHEMBL1142199, “Caenorhabditis elegans as a model to determine fitness of antibiotic-resistant Salmonella enterica serovar typhimurium” (2007)
Converted amounts (≈) assume the structure as drawn.

Key:
Type in all cases: functional, Salmonella enterica subsp. enterica serovar Typhimurium
Salmonella typhimurium [1] = assay: Antimicrobial activity against Salmonella enterica serovar Typhimurium SMP816 in Caenorhabditis elegans
Salmonella typhimurium [2] = assay: Antimicrobial activity against Salmonella enterica serovar Typhimurium SMP807 in Caenorhabditis elegans
Salmonella typhimurium [3] = assay: Antimicrobial activity against Salmonella enterica serovar Typhimurium SMP973 in Caenorhabditis elegans
Salmonella typhimurium [4] = assay: Antimicrobial activity against Salmonella enterica serovar Typhimurium SMP972 in Caenorhabditis elegans
Salmonella typhimurium [5] = assay: Antimicrobial activity against Salmonella enterica serovar Typhimurium JB1855 in Caenorhabditis elegans
Salmonella typhimurium [6] = assay: Antimicrobial activity against Salmonella enterica serovar Typhimurium JB1850 in Caenorhabditis elegans
Salmonella typhimurium [7] = assay: Antimicrobial activity against Salmonella enterica serovar Typhimurium DA8325 in Caenorhabditis elegans
Salmonella typhimurium [8] = assay: Antimicrobial activity against Salmonella enterica serovar Typhimurium DA8326 in Caenorhabditis elegans
Salmonella typhimurium [9] = assay: Antimicrobial activity against Salmonella enterica serovar Typhimurium DA8340 in Caenorhabditis elegans
Salmonella typhimurium [10] = assay: Antimicrobial activity against Salmonella enterica serovar Typhimurium JB393 in Caenorhabditis elegans
Salmonella typhimurium [11] = assay: Antimicrobial activity against Salmonella enterica serovar Typhimurium JB127 in Caenorhabditis elegans

## CO[C@H]1/C=C/O[C@@]2(C)Oc3c(C)c(O)c4c(O)c(c(/C=N/N5CCN(C)CC5)c(O)c4c3C2=O)NC(=O)/C(C)=C\C=C\[C@H](C)[C@H](O)[C@@H](C)[C@@H](O)[C@@H](C)[C@H](OC(C)=O)[C@@H]1C [RIFAMPIN]
Salmonella typhimurium [1]
  MIC: > 256 µg/mL
Salmonella typhimurium [2]
  MIC: > 256 µg/mL

## CCn1cc(C(=O)O)c(=O)c2ccc(C)nc21 [NALIDIXIC ACID]
Salmonella typhimurium [3]
  MIC: > 256 µg/mL
Salmonella typhimurium [4]
  MIC: 64 µg/mL (≈ 276 µM)

## C/C(=C\C(=O)OCCCCCCCCC(=O)O)C[C@@H]1OC[C@H](C[C@@H]2O[C@H]2[C@@H](C)[C@H](C)O)[C@@H](O)[C@H]1O [MUPIROCIN]
Salmonella typhimurium [5]
  MIC: > 1020 µg/mL
Salmonella typhimurium [6]
  MIC: > 1020 µg/mL

## CCCCC[C@H](CC(=O)NO)C(=O)N[C@H](C(=O)N1CCC[C@H]1CO)C(C)C [ACTINONIN]
Salmonella typhimurium [7]
  MIC: > 1020 µg/mL
Salmonella typhimurium [8]
  MIC: > 1020 µg/mL
Salmonella typhimurium [9]
  MIC: > 1020 µg/mL

## CC(=O)O[C@H]1C[C@@]2(C)[C@@H](C[C@@H](O)[C@H]3[C@@]4(C)CC[C@@H](O)[C@@H](C)[C@@H]4CC[C@@]32C)/C1=C(\CCC=C(C)C)C(=O)O [FUSIDIC ACID]
Salmonella typhimurium [10]
  MIC: 2400 µg/mL (≈ 4640 µM)

## CN[C@@H]1[C@H](O[C@H]2[C@H](O[C@H]3[C@H](O)[C@@H](O)[C@H](N=C(N)N)[C@@H](O)[C@@H]3N=C(N)N)O[C@@H](C)[C@]2(O)C=O)O[C@@H](CO)[C@H](O)[C@H]1O [STREPTOMYCIN]
Salmonella typhimurium [11]
  MIC: > 1020 µg/mL
